{"source": "ChEMBL document CHEMBL5463729", "about": "“Data for DCP probe BAY 1753011” (2023)", "settings_in_all_cases": "Compound concentration 10.0 uM", "key": {"[1]": {"molecular_target": "NUAK family SNF1-like kinase 1 (Homo sapiens) (UniProt O60285)", "test": "Inhibition of ARK5(h) at 10.0 µM in the Eurofins Kinase panel"}, "[2]": {"molecular_target": "Casein kinase 2 (Homo sapiens) (UniProt P67870+P68400+P19784+Q8NEV1)", "test": "Inhibition of CK2(h) at 10.0 µM in the Eurofins Kinase panel", "assay_type": "protein assay"}, "[3]": {"molecular_target": "Serine/threonine-protein kinase PAK 4 (Homo sapiens) (UniProt O96013)", "test": "Inhibition of PAK4(h) at 10.0 µM in the Eurofins Kinase panel"}, "[4]": {"molecular_target": "PI3-kinase p110-delta/p85-alpha (Homo sapiens) (UniProt P27986+O00329)", "test": "Inhibition of PI3 Kinase (p110d/p85a)(h) at 10.0 µM in the Eurofins Kinase panel", "assay_type": "protein-complex assay"}, "[5]": {"molecular_target": "Tribbles homolog 2 (Homo sapiens) (UniProt Q92519)", "test": "Inhibition of TRB2(h) at 10.0 µM in the Eurofins Kinase panel"}, "[6]": {"molecular_target": "Calcium/calmodulin-dependent protein kinase type II subunit beta (Homo sapiens) (UniProt Q13554)", "sequence (Q13554 whole entry)": "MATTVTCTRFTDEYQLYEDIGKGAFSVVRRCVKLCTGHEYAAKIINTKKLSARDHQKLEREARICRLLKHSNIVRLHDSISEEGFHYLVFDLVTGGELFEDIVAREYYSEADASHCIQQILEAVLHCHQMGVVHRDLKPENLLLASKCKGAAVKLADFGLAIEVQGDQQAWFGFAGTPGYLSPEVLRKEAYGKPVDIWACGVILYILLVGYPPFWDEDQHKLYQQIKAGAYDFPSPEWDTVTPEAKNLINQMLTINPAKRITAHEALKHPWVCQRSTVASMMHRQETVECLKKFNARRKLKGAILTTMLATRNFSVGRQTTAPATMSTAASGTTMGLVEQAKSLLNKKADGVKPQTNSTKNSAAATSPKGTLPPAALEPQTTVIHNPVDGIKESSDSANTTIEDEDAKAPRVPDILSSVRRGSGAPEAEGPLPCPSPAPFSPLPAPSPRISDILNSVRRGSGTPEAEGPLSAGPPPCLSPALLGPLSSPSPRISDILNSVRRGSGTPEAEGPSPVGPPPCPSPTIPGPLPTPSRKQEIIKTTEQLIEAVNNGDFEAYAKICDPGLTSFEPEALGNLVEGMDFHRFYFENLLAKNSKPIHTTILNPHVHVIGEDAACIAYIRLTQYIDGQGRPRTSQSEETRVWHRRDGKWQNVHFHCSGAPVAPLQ", "test": "Inhibition of CaMKIIbeta(h) at 10.0 µM in the Eurofins Kinase panel"}, "[7]": {"molecular_target": "Macrophage colony-stimulating factor 1 receptor (Homo sapiens) (UniProt P07333)", "test": "Inhibition of Fms(h) at 10.0 µM in the Eurofins Kinase panel"}, "[8]": {"molecular_target": "Serine/threonine-protein kinase 35 (Homo sapiens) (UniProt Q8TDR2)", "test": "Inhibition of CLIK1(h) at 10.0 µM in the Eurofins Kinase panel"}, "[9]": {"molecular_target": "Eukaryotic translation initiation factor 2-alpha kinase 3 (Homo sapiens) (UniProt Q9NZJ5)", "test": "Inhibition of PEK(h) at 10.0 µM in the Eurofins Kinase panel"}, "[10]": {"molecular_target": "Serine/threonine-protein kinase WNK1 (Homo sapiens) (UniProt Q9H4A3)", "test": "Inhibition of WNK1(h) at 10.0 µM in the Eurofins Kinase panel"}, "[11]": {"molecular_target": "Proto-oncogene tyrosine-protein kinase Src (Homo sapiens) (UniProt P12931)", "test": "Inhibition of cSRC(h) at 10.0 µM in the Eurofins Kinase panel"}, "[12]": {"molecular_target": "Vascular endothelial growth factor receptor 2 (Homo sapiens) (UniProt P35968)", "test": "Inhibition of KDR(h) at 10.0 µM in the Eurofins Kinase panel"}, "[13]": {"molecular_target": "D(2) dopamine receptor (Homo sapiens) (UniProt P14416)", "sequence (P14416 whole entry)": "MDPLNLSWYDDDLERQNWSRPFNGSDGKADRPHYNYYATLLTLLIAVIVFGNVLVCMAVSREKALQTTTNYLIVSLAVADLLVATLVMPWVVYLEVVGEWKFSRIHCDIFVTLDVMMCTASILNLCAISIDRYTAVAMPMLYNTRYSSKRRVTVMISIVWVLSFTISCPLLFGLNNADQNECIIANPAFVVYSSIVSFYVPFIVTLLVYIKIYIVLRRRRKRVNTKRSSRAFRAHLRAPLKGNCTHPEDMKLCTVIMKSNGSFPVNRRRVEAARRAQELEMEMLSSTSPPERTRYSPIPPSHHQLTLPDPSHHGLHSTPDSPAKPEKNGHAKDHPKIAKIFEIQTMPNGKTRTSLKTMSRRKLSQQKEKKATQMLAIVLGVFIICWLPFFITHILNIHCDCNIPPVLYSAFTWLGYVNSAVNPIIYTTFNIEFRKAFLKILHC"}, "[14]": {"molecular_target": "Rhodopsin kinase GRK7 (Homo sapiens) (UniProt Q8WTQ7)", "test": "Inhibition of GRK7(h) at 10.0 µM in the Eurofins Kinase panel"}, "[15]": {"molecular_target": "Dual specificity protein kinase TTK (Homo sapiens) (UniProt P33981)", "test": "Inhibition of TTK(h) at 10.0 µM in the Eurofins Kinase panel"}, "[16]": {"molecular_target": "Phosphatidylinositol 4-phosphate 3-kinase C2 domain-containing subunit alpha (Homo sapiens) (UniProt O00443)", "test": "Inhibition of PI3KC2a(h) at 10.0 µM in the Eurofins Kinase panel"}, "[17]": {"molecular_target": "Dual specificity tyrosine-phosphorylation-regulated kinase 1B (Homo sapiens) (UniProt Q9Y463)", "sequence (Q9Y463 whole entry, looked up)": "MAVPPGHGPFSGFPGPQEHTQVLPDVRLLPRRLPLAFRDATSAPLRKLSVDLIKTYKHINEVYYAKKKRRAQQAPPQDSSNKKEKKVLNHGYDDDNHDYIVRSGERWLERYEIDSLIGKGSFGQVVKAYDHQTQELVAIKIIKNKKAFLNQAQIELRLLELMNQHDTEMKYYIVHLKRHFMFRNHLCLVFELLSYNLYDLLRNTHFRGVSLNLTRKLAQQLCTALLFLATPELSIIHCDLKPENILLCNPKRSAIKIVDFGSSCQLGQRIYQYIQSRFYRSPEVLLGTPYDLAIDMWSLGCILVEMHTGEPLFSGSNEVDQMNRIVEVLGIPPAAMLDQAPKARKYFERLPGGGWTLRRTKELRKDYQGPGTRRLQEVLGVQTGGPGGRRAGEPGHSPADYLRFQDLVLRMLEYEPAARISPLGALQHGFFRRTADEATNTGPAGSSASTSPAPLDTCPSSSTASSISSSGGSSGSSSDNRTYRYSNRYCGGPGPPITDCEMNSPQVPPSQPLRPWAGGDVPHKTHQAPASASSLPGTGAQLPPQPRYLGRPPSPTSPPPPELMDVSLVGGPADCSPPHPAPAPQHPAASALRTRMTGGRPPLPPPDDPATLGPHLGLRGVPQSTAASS", "test": "Inhibition of DYRK1B(h) at 10.0 µM in the Eurofins Kinase panel"}, "[18]": {"molecular_target": "Tyrosine-protein kinase JAK1 (Homo sapiens) (UniProt P23458)", "sequence (P23458 whole entry)": "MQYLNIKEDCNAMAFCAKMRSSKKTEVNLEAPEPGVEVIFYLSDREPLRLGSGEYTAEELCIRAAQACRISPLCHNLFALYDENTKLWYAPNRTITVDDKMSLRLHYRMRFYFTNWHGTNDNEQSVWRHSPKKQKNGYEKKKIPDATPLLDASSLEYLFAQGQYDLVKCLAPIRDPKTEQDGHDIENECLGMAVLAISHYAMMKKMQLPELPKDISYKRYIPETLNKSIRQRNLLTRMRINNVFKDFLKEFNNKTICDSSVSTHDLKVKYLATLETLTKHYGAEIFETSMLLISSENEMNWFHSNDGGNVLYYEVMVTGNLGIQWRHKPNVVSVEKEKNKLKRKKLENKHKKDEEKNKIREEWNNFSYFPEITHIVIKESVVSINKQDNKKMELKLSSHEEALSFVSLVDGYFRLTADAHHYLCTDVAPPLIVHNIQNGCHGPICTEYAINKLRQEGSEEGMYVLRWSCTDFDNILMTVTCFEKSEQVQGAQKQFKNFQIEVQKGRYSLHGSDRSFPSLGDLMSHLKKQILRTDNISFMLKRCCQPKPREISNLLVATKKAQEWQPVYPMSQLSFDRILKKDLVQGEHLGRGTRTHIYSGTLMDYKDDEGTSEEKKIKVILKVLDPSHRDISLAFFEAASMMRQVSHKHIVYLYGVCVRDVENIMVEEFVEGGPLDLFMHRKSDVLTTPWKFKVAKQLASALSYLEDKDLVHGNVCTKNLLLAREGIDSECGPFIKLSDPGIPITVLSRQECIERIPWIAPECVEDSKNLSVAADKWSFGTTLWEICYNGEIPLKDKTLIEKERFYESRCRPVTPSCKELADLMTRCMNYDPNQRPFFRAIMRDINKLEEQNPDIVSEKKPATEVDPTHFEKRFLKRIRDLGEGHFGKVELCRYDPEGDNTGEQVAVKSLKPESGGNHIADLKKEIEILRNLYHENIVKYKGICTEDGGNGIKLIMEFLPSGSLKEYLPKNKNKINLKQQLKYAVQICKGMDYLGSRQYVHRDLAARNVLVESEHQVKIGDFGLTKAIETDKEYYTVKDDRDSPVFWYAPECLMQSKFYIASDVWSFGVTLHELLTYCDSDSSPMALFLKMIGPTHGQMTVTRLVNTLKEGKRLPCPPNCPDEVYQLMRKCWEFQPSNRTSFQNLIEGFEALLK", "test": "Inhibition of JAK1(h) at 10.0 µM in the Eurofins Kinase panel"}, "[19]": {"molecular_target": "Beta-3 adrenergic receptor (Homo sapiens) (UniProt P13945)", "sequence (P13945 whole entry, looked up)": "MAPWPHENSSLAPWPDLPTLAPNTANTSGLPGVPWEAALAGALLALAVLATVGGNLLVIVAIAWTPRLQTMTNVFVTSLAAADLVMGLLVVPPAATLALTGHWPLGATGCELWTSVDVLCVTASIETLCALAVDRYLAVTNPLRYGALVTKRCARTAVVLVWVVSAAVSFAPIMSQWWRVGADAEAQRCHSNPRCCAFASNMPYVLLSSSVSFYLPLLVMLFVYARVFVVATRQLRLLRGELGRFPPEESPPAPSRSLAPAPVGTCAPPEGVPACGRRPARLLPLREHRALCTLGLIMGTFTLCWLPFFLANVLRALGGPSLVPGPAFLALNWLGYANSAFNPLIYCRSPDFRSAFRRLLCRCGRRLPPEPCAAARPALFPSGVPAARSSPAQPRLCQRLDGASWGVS"}, "[20]": {"molecular_target": "Protein kinase C beta type (Homo sapiens) (UniProt P05771)", "test": "Inhibition of PKCbetaI(h) at 10.0 µM in the Eurofins Kinase panel"}, "[21]": {"molecular_target": "Testis-specific serine/threonine-protein kinase 3 (Homo sapiens) (UniProt Q96PN8)", "test": "Inhibition of TSSK3(h) at 10.0 µM in the Eurofins Kinase panel"}, "[22]": {"molecular_target": "T1, 5-hydroxytryptamine receptor 3A (Homo sapiens) (UniProt P46098)", "T1 sequence (whole entry)": "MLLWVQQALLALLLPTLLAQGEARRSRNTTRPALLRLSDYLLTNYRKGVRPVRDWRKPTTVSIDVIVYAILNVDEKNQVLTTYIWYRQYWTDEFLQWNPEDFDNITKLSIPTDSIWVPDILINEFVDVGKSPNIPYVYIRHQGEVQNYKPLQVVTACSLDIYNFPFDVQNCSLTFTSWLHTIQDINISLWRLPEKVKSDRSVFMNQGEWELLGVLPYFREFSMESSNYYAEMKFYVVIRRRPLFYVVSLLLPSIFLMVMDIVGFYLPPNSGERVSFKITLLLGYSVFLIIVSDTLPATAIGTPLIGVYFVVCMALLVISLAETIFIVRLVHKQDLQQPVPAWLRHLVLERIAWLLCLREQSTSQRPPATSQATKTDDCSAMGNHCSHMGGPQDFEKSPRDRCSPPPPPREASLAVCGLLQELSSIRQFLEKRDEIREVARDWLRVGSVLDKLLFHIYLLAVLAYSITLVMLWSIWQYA"}, "[23]": {"molecular_target": "Serine/threonine-protein kinase PLK4 (Homo sapiens) (UniProt O00444)", "test": "Inhibition of Plk4(h) at 10.0 µM in the Eurofins Kinase panel"}, "[24]": {"molecular_target": "Tau-tubulin kinase 1 (Homo sapiens) (UniProt Q5TCY1)", "test": "Inhibition of TTBK1(h) at 10.0 µM in the Eurofins Kinase panel"}, "[25]": {"molecular_target": "Serine/threonine-protein kinase TAO3 (Homo sapiens) (UniProt Q9H2K8)", "test": "Inhibition of TAO3(h) at 10.0 µM in the Eurofins Kinase panel"}, "[26]": {"molecular_target": "cAMP-dependent protein kinase catalytic subunit PRKX (Homo sapiens) (UniProt P51817)", "test": "Inhibition of PrKX(h) at 10.0 µM in the Eurofins Kinase panel"}, "[27]": {"molecular_target": "5-hydroxytryptamine receptor 1B (Homo sapiens) (UniProt P28222)", "sequence (P28222 whole entry)": "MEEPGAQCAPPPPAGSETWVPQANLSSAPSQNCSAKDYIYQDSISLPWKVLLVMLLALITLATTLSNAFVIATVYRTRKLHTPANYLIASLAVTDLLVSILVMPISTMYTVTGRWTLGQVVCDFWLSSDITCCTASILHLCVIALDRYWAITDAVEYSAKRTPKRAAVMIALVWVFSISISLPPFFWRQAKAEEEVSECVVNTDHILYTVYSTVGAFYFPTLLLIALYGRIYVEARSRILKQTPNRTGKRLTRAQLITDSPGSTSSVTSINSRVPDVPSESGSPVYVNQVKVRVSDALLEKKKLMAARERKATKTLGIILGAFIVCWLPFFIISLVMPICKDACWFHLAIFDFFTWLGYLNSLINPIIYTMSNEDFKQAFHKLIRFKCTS"}, "[28]": {"molecular_target": "DNA-dependent protein kinase catalytic subunit (Homo sapiens) (UniProt P78527)", "test": "Inhibition of DNA-PK(h) at 10.0 µM in the Eurofins Kinase panel"}, "[29]": {"molecular_target": "Adenosine receptor A3 (Homo sapiens) (UniProt P0DMS8)", "sequence (P0DMS8 whole entry)": "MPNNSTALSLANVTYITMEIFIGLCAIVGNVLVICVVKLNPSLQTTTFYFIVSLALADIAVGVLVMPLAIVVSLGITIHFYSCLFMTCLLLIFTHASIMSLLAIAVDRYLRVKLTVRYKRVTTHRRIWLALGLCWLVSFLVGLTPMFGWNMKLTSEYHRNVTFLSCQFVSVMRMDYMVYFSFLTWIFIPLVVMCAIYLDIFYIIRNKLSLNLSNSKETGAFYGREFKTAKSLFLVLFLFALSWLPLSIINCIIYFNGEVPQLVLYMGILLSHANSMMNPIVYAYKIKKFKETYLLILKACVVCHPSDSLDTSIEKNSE"}, "[30]": {"molecular_target": "Megakaryocyte-associated tyrosine-protein kinase (Homo sapiens) (UniProt P42679)", "test": "Inhibition of MATK(h) at 10.0 µM in the Eurofins Kinase panel"}, "[31]": {"molecular_target": "Casein kinase I isoform epsilon (Homo sapiens) (UniProt P49674)", "sequence (P49674 whole entry, looked up, canonical isoform)": "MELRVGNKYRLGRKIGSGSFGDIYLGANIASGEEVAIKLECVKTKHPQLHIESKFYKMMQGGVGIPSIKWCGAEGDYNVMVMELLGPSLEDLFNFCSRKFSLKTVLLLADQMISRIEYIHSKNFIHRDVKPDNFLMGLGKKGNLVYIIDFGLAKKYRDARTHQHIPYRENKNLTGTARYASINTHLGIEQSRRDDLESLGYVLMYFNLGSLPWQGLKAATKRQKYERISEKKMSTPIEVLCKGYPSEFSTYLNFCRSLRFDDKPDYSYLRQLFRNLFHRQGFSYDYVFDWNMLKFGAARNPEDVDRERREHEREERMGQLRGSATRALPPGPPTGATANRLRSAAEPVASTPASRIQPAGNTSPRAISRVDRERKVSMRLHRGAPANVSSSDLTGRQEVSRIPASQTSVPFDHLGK", "test": "Inhibition of CK1epsilon(h) at 10.0 µM in the Eurofins Kinase panel"}, "[32]": {"molecular_target": "MAP kinase-interacting serine/threonine-protein kinase 2 (Homo sapiens) (UniProt Q9HBH9)", "sequence (Q9HBH9 whole entry, looked up)": "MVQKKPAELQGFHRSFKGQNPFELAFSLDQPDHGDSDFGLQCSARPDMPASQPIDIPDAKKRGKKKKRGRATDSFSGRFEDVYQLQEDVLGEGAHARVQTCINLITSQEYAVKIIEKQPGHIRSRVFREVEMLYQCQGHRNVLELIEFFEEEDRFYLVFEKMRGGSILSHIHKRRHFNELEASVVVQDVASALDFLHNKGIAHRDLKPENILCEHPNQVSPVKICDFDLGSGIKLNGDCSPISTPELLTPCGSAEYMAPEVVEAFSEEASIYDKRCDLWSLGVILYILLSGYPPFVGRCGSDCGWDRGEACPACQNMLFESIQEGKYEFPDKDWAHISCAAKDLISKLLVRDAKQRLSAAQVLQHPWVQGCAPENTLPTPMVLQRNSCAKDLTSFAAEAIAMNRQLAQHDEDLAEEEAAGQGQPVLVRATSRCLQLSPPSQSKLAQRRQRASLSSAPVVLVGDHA", "test": "Inhibition of Mnk2(h) at 10.0 µM in the Eurofins Kinase panel"}, "[33]": {"molecular_target": "Phosphatidylinositol 5-phosphate 4-kinase type-2 alpha (Homo sapiens) (UniProt P48426)", "test": "Inhibition of PIP4K2a(h) at 10.0 µM in the Eurofins Kinase panel"}}}
{"smiles": "O=c1n(Cc2cncn2-c2cccc(Cl)c2)nc(-c2ccc(Cl)cc2)n1C[C@H](O)C(F)(F)F", "values": [{"measurement": "inhibition", "setting": "[1]", "value": -2.39, "unit": "%"}, {"measurement": "inhibition", "setting": "[2]", "value": -3.37, "unit": "%"}, {"measurement": "inhibition", "setting": "[3]", "value": -2.41, "unit": "%"}, {"measurement": "inhibition", "setting": "[4]", "value": -4.66, "unit": "%"}, {"measurement": "inhibition", "setting": "[5]", "value": 3.48, "unit": "%"}, {"measurement": "inhibition", "setting": "[6]", "value": -8.58, "unit": "%"}, {"measurement": "inhibition", "setting": "[7]", "value": 5.33, "unit": "%"}, {"measurement": "inhibition", "setting": "[8]", "value": 7.34, "unit": "%"}, {"measurement": "inhibition", "setting": "[9]", "value": -1.49, "unit": "%"}, {"measurement": "inhibition", "setting": "[10]", "value": -5.38, "unit": "%"}, {"measurement": "inhibition", "setting": "[11]", "value": 0.88, "unit": "%"}, {"measurement": "inhibition", "setting": "[12]", "value": -2.77, "unit": "%"}, {"measurement": "inhibition", "setting": "[13]", "value": -8.61, "unit": "%"}, {"measurement": "inhibition", "setting": "[14]", "value": -3.6, "unit": "%"}, {"measurement": "inhibition", "setting": "[15]", "value": -7.11, "unit": "%"}, {"measurement": "inhibition", "setting": "[16]", "value": 27.5, "unit": "%"}, {"measurement": "inhibition", "setting": "[17]", "value": 15.4, "unit": "%"}, {"measurement": "inhibition", "setting": "[18]", "value": 8.74, "unit": "%"}, {"measurement": "inhibition", "setting": "[19]", "value": -0.32, "unit": "%"}, {"measurement": "inhibition", "setting": "[20]", "value": 1, "unit": "%"}, {"measurement": "inhibition", "setting": "[21]", "value": -6.06, "unit": "%"}, {"measurement": "inhibition", "setting": "[22]", "value": -2.44, "unit": "%"}, {"measurement": "inhibition", "setting": "[23]", "value": 10.6, "unit": "%"}, {"measurement": "inhibition", "setting": "[24]", "value": -6.92, "unit": "%"}, {"measurement": "inhibition", "setting": "[25]", "value": 3.07, "unit": "%"}, {"measurement": "inhibition", "setting": "[26]", "value": 6.15, "unit": "%"}, {"measurement": "inhibition", "setting": "[27]", "value": 7.15, "unit": "%"}, {"measurement": "inhibition", "setting": "[28]", "value": -5.25, "unit": "%"}, {"measurement": "inhibition", "setting": "[29]", "value": 7, "unit": "%"}, {"measurement": "inhibition", "setting": "[30]", "value": 4.16, "unit": "%"}, {"measurement": "inhibition", "setting": "[31]", "value": 4.45, "unit": "%"}, {"measurement": "inhibition", "setting": "[32]", "value": -0.78, "unit": "%"}, {"measurement": "inhibition", "setting": "[33]", "value": -2.76, "unit": "%"}]}
{"smiles": "C[C@H](O)c1nc(Cn2nc(-c3ccc(Cl)cc3)n(C[C@H](O)C(F)(F)F)c2=O)nn1-c1cccc(Cl)c1", "note": "[PECAVAPTAN]", "values": [{"measurement": "inhibition", "setting": "[1]", "value": -3.57, "unit": "%"}, {"measurement": "inhibition", "setting": "[2]", "value": 5.37, "unit": "%"}, {"measurement": "inhibition", "setting": "[3]", "value": -1.84, "unit": "%"}, {"measurement": "inhibition", "setting": "[4]", "value": -1.36, "unit": "%"}, {"measurement": "inhibition", "setting": "[5]", "value": -2.41, "unit": "%"}, {"measurement": "inhibition", "setting": "[6]", "value": -0.27, "unit": "%"}, {"measurement": "inhibition", "setting": "[7]", "value": -2.47, "unit": "%"}, {"measurement": "inhibition", "setting": "[8]", "value": 9.3, "unit": "%"}, {"measurement": "inhibition", "setting": "[9]", "value": 1.82, "unit": "%"}, {"measurement": "inhibition", "setting": "[10]", "value": 6.35, "unit": "%"}, {"measurement": "inhibition", "setting": "[11]", "value": -5.76, "unit": "%"}, {"measurement": "inhibition", "setting": "[12]", "value": 1.28, "unit": "%"}, {"measurement": "inhibition", "setting": "[13]", "value": -5.84, "unit": "%"}, {"measurement": "inhibition", "setting": "[14]", "value": 0.06, "unit": "%"}, {"measurement": "inhibition", "setting": "[15]", "value": 2.07, "unit": "%"}, {"measurement": "inhibition", "setting": "[16]", "value": 11.6, "unit": "%"}, {"measurement": "inhibition", "setting": "[17]", "value": 15.8, "unit": "%"}, {"measurement": "inhibition", "setting": "[18]", "value": -1.72, "unit": "%"}, {"measurement": "inhibition", "setting": "[19]", "value": -1.97, "unit": "%"}, {"measurement": "inhibition", "setting": "[20]", "value": 2.79, "unit": "%"}, {"measurement": "inhibition", "setting": "[21]", "value": -7.5, "unit": "%"}, {"measurement": "inhibition", "setting": "[22]", "value": -4.35, "unit": "%"}, {"measurement": "inhibition", "setting": "[23]", "value": -5.71, "unit": "%"}, {"measurement": "inhibition", "setting": "[24]", "value": -7.82, "unit": "%"}, {"measurement": "inhibition", "setting": "[25]", "value": 5.55, "unit": "%"}, {"measurement": "inhibition", "setting": "[26]", "value": 1.42, "unit": "%"}, {"measurement": "inhibition", "setting": "[27]", "value": 4.87, "unit": "%"}, {"measurement": "inhibition", "setting": "[28]", "value": -4.2, "unit": "%"}, {"measurement": "inhibition", "setting": "[29]", "value": 16, "unit": "%"}, {"measurement": "inhibition", "setting": "[30]", "value": 0.84, "unit": "%"}, {"measurement": "inhibition", "setting": "[31]", "value": 1.26, "unit": "%"}, {"measurement": "inhibition", "setting": "[32]", "value": 3.54, "unit": "%"}, {"measurement": "inhibition", "setting": "[33]", "value": -0.83, "unit": "%"}]}
